# Measured values from patent publication US6660769B1, “N substituted 3-amino-2,2-di-c-alkyl-1,4-butyrolactones and 1,4-thiobutyrolactones for use as promoter of γ-aminobutyric acid activity and for treating nervous disorders and preparation method” (priority 1999, dated 2003).
# Values joined by “and” are separate entries in the source; they are usually repeats but may differ in a detail not shown here. Identical values can stand only once. Like-named read-outs stand apart in the source and are kept apart here.
# Columns and labels:
# [1] = target: picrotoxin binding site of the GABA-A receptor; details: published compounds; read-out: Displacement of S^35-TBPS (IC50); cited from earlier work
# [2] = tested on: GABA currents in cultured neurons; details: cited from earlier work
# [3] = tested on: picrotoxin binding site of the GABA-A receptor; details: for IC50: read-out: IC50 of S^35-TBPS displacement
# [4] = tested on: benzodiazepine binding site of the GABA-A receptor; experiment: [H3]flunitrazepam displacement, brain membranes
# [5] = target: T1, α1β2γ2 recombinant GABA-A receptors (Homo sapiens, UniProt P14867+P18507+P47870); experiment: cell-based
# T1 construct: expressed in transfected cells; host or cells: Xenopus laevis oocytes injected with cRNA
# [6] = tested on: GABA binding site of the GABA-A receptor; experiment: [H3]muscimol displacement, brain membranes; details: 100 μM
# mice = details: attacks induced by pentylenetetrazole and picrotoxin; cited from earlier work
# [7] = Solubility noted in the electrophysiological test
# [8] = 200 μM, α1β2γ2, read-out: % of stimulation of the GABA currents
# [9] = α1β2γ2, read-out: % of stimulation of the GABA currents
# T1 sequence (P14867 28-456): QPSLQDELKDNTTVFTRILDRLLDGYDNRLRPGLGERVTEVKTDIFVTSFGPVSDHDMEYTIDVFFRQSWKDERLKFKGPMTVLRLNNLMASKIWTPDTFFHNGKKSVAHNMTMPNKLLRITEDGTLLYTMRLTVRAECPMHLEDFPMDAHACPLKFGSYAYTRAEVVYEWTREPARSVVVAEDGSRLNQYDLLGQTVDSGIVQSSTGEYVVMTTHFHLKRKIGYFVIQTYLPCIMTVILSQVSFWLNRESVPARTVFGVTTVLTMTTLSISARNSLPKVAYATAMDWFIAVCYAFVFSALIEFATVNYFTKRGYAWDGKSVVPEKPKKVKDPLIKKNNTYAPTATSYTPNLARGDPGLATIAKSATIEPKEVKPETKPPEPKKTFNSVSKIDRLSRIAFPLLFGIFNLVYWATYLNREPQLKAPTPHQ
# T1 sequence (P47870 25-512 limits assumed): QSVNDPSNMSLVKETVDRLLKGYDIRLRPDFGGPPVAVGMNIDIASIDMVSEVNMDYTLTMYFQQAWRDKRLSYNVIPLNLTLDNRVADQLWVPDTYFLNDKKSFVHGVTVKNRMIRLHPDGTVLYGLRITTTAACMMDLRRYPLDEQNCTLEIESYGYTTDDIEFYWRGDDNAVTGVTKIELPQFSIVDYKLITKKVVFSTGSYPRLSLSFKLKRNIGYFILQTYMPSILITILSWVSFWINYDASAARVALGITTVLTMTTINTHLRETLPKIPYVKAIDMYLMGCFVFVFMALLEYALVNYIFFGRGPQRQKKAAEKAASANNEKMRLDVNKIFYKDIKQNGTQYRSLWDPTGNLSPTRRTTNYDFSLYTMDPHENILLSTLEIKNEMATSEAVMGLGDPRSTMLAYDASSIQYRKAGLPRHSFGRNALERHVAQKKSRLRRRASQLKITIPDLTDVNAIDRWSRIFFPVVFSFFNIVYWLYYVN
# T1 sequence (P18507 40-475): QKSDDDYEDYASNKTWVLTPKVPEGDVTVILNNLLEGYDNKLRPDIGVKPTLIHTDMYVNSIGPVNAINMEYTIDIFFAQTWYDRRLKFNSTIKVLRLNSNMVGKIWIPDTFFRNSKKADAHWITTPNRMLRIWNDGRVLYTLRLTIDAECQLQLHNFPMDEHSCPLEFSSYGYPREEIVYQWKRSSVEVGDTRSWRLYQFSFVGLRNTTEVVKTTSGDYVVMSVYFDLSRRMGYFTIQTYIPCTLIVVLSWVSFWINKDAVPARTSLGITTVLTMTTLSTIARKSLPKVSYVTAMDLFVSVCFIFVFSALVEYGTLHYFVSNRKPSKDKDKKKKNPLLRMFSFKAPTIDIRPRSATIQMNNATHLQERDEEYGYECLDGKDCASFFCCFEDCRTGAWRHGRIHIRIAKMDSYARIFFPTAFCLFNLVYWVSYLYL
compound,measurement,setting,value
CC1(CC(F)(F)F)CCOC1=O (centres unmarked) [Compound 61],IC50,[1],3100 µM
same,% of stimulation of GABA (concentration),[2]; 1 μM,+146 ± 12%
CC1(CC(F)(F)F)CCSC1=O (centres unmarked) [Compound 60],IC50,[1],520 µM
same,% of stimulation of GABA (concentration),[2]; 300 μM,+160 ± 17%
"C[C@@H]1C(=O)OC[C@@H]1N(Cc1ccccc1)C(=O)OCc1ccccc1 (relative stereo) [Compound 43, cis-3-(N-benzyl-N-benzyloxycarboyl)amino-2-(C-methyl)-1,4-butyrolactone]",Inhibition of the radiolabeled ligands % TBPS,[3]; 10 μM,35%
same,Inhibition of the radiolabeled ligands % TBPS,[3]; 100 μM,60%
same,Inhibition of the radiolabeled ligands % Flu,[4]; 10 μM,20%
same,Inhibition of the radiolabeled ligands % Flu,[4]; 100 μM,30%
same,% of stimulation of the GABA currents,"[5]; 200 μM, α1β2γ2",−3 ± 3%
same,Inhibition of the radiolabeled ligands % Muscimol,[6],0%
"CCCC1(CCC)C(=O)OCC1NC(=O)OCc1ccccc1 (centres unmarked) [Compound 30, 3-Benzyloxycarbonylamino-2,2-(C-dipropyl)-1,4-butyrolactone]",Inhibition of the radiolabeled ligands % TBPS,[3]; 10 μM,0 10 μM) %
same,Inhibition of the radiolabeled ligands % TBPS,[3]; 100 μM,55%
same,Inhibition of the radiolabeled ligands % Flu,[4]; 100 μM,0%
same,activation at 1 µM,"[5]; 1 μM, α1β2γ2, read-out: % of stimulation of the GABA currents",15%
same,activation at 10 µM,"[5]; 10 μM, α1β2γ2, read-out: % of stimulation of the GABA currents",140%
same,activation at 50 µM,"[5]; 50 μM, α1β2γ2, read-out: % of stimulation of the GABA currents",250%
same,activation at 200 µM,[5]; [8],51%
same,Inhibition of the radiolabeled ligands % Muscimol,[6],0%
CCC1(CC)CCNC1=O [Compound 58],IC50,[1],5800 µM
same,% of stimulation of GABA (concentration),[2]; 1 μM,+137 ± 6%
CCC1(C)CCOC1=O (centres unmarked) [Compound 55],IC50,[1],2300 µM
same,% of stimulation of GABA (concentration),[2]; 300 μM,+101 ± 8%
same,convulsant or anticonvulsant effect in mice,mice,anticonvulsant properties
"C[C@@H]1C(=O)OC[C@H]1N(Cc1ccccc1)C(=O)OCc1ccccc1 (relative stereo) [Compound 42, trans-3-(N-benzyl-N-benzyloxycarboyl)amino-2-(C-methyl)-1,4-butyrolactone]",Inhibition of the radiolabeled ligands % TBPS,[3]; 10 μM,15%
same,Inhibition of the radiolabeled ligands % TBPS,[3]; 100 μM,52%
same,Inhibition of the radiolabeled ligands % Flu,[4]; 100 μM,0%
same,% of stimulation of the GABA currents,"[5]; 200 μM, α1β2γ2",+3 ± 10%
"CCCC1(CCC)C(=O)OCC1NC(=O)OCC (centres unmarked) [Compound 36, 3-Ethyloxycarbonylamino-2,2-di(C-propyl)-1,4-butyrolactone]",IC50,[3],> 100 µM
same,Inhibition of the radiolabeled ligands % Flu,[4]; 100 μM,0%
same,Inhibition of the radiolabeled ligands % Muscimol,[6],0%
"C[C@@H]1C(=O)OC[C@H]1NC(=O)OCc1ccccc1 (relative stereo) [Compound 28, trans-3-benzyloxycarbonylamino-2-(C-methyl)-1,4-butyrolactone]",Inhibition of the radiolabeled ligands % TBPS,[3]; 100 μM,0%
same,Inhibition of the radiolabeled ligands % Flu,[4]; 100 μM,0%
same,stimulating activities for the GABA current (in words),[5],low stimulating activities
same,% of stimulation of the GABA currents,"[5]; 50 μM, α1β2γ2",−7 ± 7%
same,Inhibition of the radiolabeled ligands % Muscimol,[6],0%
"CCCC1(CCC)C(=O)OCC1NS(=O)(=O)c1ccc(C(F)(F)F)cc1 (centres unmarked) [Compound 32, 3-(p-Trifluoromethylphenylsulfonamido)-2,2-di(C-propyl)-1,4-butyrolactone]",Inhibition of the radiolabeled ligands % TBPS,"[3]; 10 μM, anterior part of the brain",100%
same,Inhibition of TBPS in the cerebellum,[3]; cerebellum,incomplete
same,stimulation of the binding of flunitrazepam (printed in the % Flu inhibition column),[4]; 100 μM,15-20%
same,Inhibition of the radiolabeled ligands % Muscimol,[6],0%
CCCC1(CCC)C(=O)OCC1NC(=O)c1ccccc1 (centres unmarked) [Compound 34],stimulation of the binding of flunitrazepam (printed in the % Flu inhibition column),[4]; 100 μM,weak stimulation and weak
same,activation at 2 µM,[5]; [9],17%
same,activation at 20 µM,[5]; [9],207%
same,activation at 200 µM,[5]; [8],420%
same,Inhibition of the radiolabeled ligands % Muscimol,[6],0%
"C=CCOC(=O)NC1COC(=O)C1(CCC)CCC (centres unmarked) [Compound 35, 3-Allyloxycarbonylamino-2,2-di(C-propyl)-1,4-butyrolactone]",stimulation of the binding of flunitrazepam (printed in the % Flu inhibition column),[4]; 100 μM,weak stimulation and weak
same,times more powerful than α-EMTBL in stimulating the currents produced by GABA,[5],up to 100 times
same,activation at 2 µM,[5]; [9],26%
same,activation at 20 µM,[5]; [9],229%
same,activation at 200 µM,[5]; [8],765%
same,Inhibition of the radiolabeled ligands % Muscimol,[6],0%
"CCCC1(CCC)C(=O)OCC1NS(=O)(=O)c1ccc(Cl)cc1 (centres unmarked) [Compound 31, 3-(p-Chlorophenylsulfonamido)-2,2-di(C-propyl)-1,4-butyrolactone]",IC50,[3],10 µM and ~10 µM
same,insoluble at (concentration),[7]; in the GABA current test,insoluble at higher concentrations
same,solubility,[7]; pH 7.4,> 5 µM
same,activation at 5 µM,"[5]; 5 μM, α1β2γ2, read-out: % of stimulation of the GABA currents",23%
same,Inhibition of the radiolabeled ligands % Muscimol,[6],0%
"O=C1CC(NC(=O)OCc2ccccc2)CO1 (centres unmarked) [Compound 26, 3-Benzyloxycarbonylamino-1,4-butyrolactone]",Inhibition of the radiolabeled ligands % TBPS,[3]; 100 μM,0%
same,Inhibition of the radiolabeled ligands % Flu,[4]; 100 μM,0%
same,stimulating activities for the GABA current (in words),[5],low stimulating activities
same,% of stimulation of the GABA currents,"[5]; 0.1 μM, α1β2γ2",+47 ± 90%
same,% of stimulation of the GABA currents,"[5]; 200 μM, α1β2γ2",+47 ± 9%
same,Inhibition of the radiolabeled ligands % Muscimol,[6],0%
"CCCC1(CCC)C(=O)OCC1NS(=O)(=O)c1ccc(OC)cc1 (centres unmarked) [Compound 33, 3-(p-Methoxyphenylsulfonamido)-2,2-di(C-propyl)-1,4-butyrolactone]",IC50,[3],50 µM
same,stimulation of the binding of flunitrazepam (printed in the % Flu inhibition column),[4]; 100 μM,weak
same,Inhibition of the radiolabeled ligands % Muscimol,[6],0%
"3-Benzylamino-3,3-di(C-allyl)-1,4-butyrolactone [Compound 16]",Inhibition of the radiolabeled ligands % TBPS,[3]; 100 μM,62%
same,% of stimulation of the GABA currents,"[5]; 200 μM, α1β2γ2",+115 ± 30%
"C[C@H]1C(=O)OC[C@H]1NC(=O)OCc1ccccc1 (relative stereo) [Compound 27, cis-3-benzyloxycarbonylamino-2-(C-methyl)-1,4-butyrolactone]",Inhibition of the radiolabeled ligands % TBPS,[3]; 100 μM,0%
same,Inhibition of the radiolabeled ligands % Flu,[4]; 100 μM,0%
same,% of stimulation of the GABA currents,"[5]; 50 μM, α1β2γ2",−1 ± 2%
same,stimulation of muscimol binding (printed in the % Muscimol inhibition column),[6],10% stimulation
CCC1(C)COC(=O)C1 (centres unmarked) [Compound 54],convulsant or anticonvulsant effect in mice,mice,convulsant effects
